Measurements reported in patent US7285528B2, “Agonists and antagonists of gonadotropin-releasing hormone-2, and use thereof” (priority 2002, dated 2007).
Where a SMILES comes first, the peptide text is derived from it. [ ]: non-standard residue; d: D form. dPhe(4-Cl) = N[C@H](Cc1ccc(Cl)cc1)C(=O)O; d2Nal = N[C@H](Cc1ccc2ccccc2c1)C(=O)O; dCit = NC(=O)NCCC[C@@H](N)C(=O)O; d3Pal = N[C@H](Cc1cccnc1)C(=O)O; pGlu = O=C1CC[C@@H](C(=O)O)N1

Experiments:
[1] = test system: bfGnRHR-2; experiment: Inhibition of GnRH-2-induced IP production, GH3 cells expressing bfGnRHR-2; assay type: cell-based, bullfrog; conditions: log of IC50 (negative values); half-maximal inhibition of IP production induced by GnRH-2 (1 nM, 10 nM elsewhere in the source)
Method: (§1) GH3 cell lines were obtained from the Cell Line Bank at the Cancer Research Center, Seoul National University College of Medicine, located in Seoul, Republic of Korea. The GH3 cell lines were infected with retroviruses comprising genes encoding bfGnRHR-1, bfGnRHR-2, and bfGnRHR-3 which are bullfrog GnRH receptors, and rat GnRHR, and cell lines expressing each of these receptors were obtained. The GH3 cells expressing bfGnRHR-1, bfGnRHR-2, bfGnRHR-3, and rat GnRHR were cultured on 12-well plates. After 24 hours, the cells were cultured again for 24 hours in a media containing no inositol, to which H^3-myoinositol was added. The resultant cells were washed with buffer A (140 mM NaCl, 20 mM HEPES, 4 mM KCl, 8 mM D-Glucose, 1 mM MgCl2, 1 mM CaCl2, 1 mg/ml BSA) and then cultured in buffer A containing 10 mM LiCl at 37°C. for 30 minutes. Thereafter, they were treated with GnRH having a suitable concentration, cultured at 37° C. for another 30 minutes, and then the media was eliminated. The cells were treated with 10 mM of ice-cold formic acid to terminate the reaction, and the cell extracts were mixed with Dowex anionic exchange resins. These resins were washed with distilled water, IP was extracted with 1 M ammonium formate/0.1 M formic acid, and cpm (count per minute) was determined.

[2] = test system: bfGnRHR-3; experiment: Inhibition of GnRH-2-induced IP production, GH3 cells expressing bfGnRHR-3; assay type: cell-based, bullfrog; conditions: log of IC50 (negative values); half-maximal inhibition of IP production induced by GnRH-2 (1 nM, 10 nM elsewhere in the source)
Method: as §1

[3] = test system: Primate GnRH-2 receptor; experiment: Inhibition of GnRH-2-induced c-fos-luc luciferase activity, cells expressing Primate GnRH-2 receptor; assay type: cell-based, Primates; conditions: for effect on luciferase activity induced by GnRH-2: GnRH-2 and antagonist treated at the same time
Method: Complimentary DNA (cDNA) for a Primate GnRH-2 receptor was obtained from a CV-1 cell genome. […] Plasmids having Primate GnRH-2 receptors where transfected into CV-1 cells. To assay the activity of the receptor, c-fos-luc where a luciferase gene is fused with a c-fos promoter was co-transfected as a probe gene. After 48 hours from transfection, the cells were treated with GnRH-2 agonists and then the activity of luciferase was assayed (Seong et al., Endocrinology vol 144 2003, 454-466). In the same manner as in 2-3 above, Primate GnRH-2 receptors were co-transfected along with c-fos-luc reporter genes, and after 48 hours, GnRH-2 and GnRH-2 antagonists were treated thereinto at the same time and then the effect of GnRH-2 antagonists was observed. […] Log IC50 value by antagonists is an average value of experiments that were conducted independently three times. ND stands for “not detected” which means that there are no inhibitory functions.

[4] = test system: bfGnRHR-3; experiment: Ligand-receptor binding assay, I125-GnRH-2 competition, membranes of GH3 cells expressing bfGnRHR-3; set-up: species or system bullfrog; conditions: log of IC50 (negative values); competition with I125-GnRH-2, 4° C., 16 hours
Method: To determine the binding affinity between GnRH and GnRH receptors, GnRH-2 was radiolabeled with I^125. The GH3 cells expressing bfGnRHR-1, bfGnRHR-2, bfGnRHR-3, and rat GnRHR constructed in Example 2-3 above were cultured on 100-mm dishes. After 48 hours, the cells were homogenized to obtain cellular membranes, which were then dissolved in binding buffer (40 mM Tris, pH 7.4, 2 mM MgCl2). 20 μg of membrane proteins were reacted with I^125-GnRH-2 at 4° C. for 16 hours. […] After the reaction was completed, 1^125-GnRH-2 bound to the receptors was filtered using a Brandel harvester, and cpm was measured using a γ-counter.
The GH3 cells expressing bfGnRHR-3 obtained from Example 6-1 above were treated with l^125GnRH-2 and GnRH-2 agonists and antagonists at various concentrations to determine the binding affinity of GnRH-2 agonists and antagonists toward the receptors.

[5] = test system: Primate GnRH-2 receptor; experiment: c-fos-luc luciferase activation by agonists, CV-1 cells expressing Primate GnRH-2 receptor; assay type: cell-based, Primates; conditions: for Log EC50: log of EC50 (negative values), luciferase activation, average of three independent experiments
Method: Complimentary DNA (cDNA) for a Primate GnRH-2 receptor was obtained from a CV-1 cell genome. […] Plasmids having Primate GnRH-2 receptors where transfected into CV-1 cells. To assay the activity of the receptor, c-fos-luc where a luciferase gene is fused with a c-fos promoter was co-transfected as a probe gene. After 48 hours from transfection, the cells were treated with GnRH-2 agonists and then the activity of luciferase was assayed (Seong et al., Endocrinology vol 144 2003, 454-466). […] Of the GnRH-2 receptors, [[…]]GnRH-2 performed excellently, showing effects about 3 times that of a wild-type ligand, GnRH-2. […] When analogs where the 5th, 7th, and 8th amino acids of [[…]]GnRH-2 are substituted were used, it was observed that their effects were weaker than [[…]]GnRH-2, and therefore it can be seen that it is important to maintain His, Trp, and Tyr that are found at the 5th, 7th, and 8th positions of GnRH-2 as they are (FIG. 3b). Log EC50 values and Emax values of GnRH-2 agonists are average values of experiments that were conducted independently three times. Ratio^a represents the ratio of EC50 values of other GnRH analogs based on EC50 values of GnRH-2.

Row | Molecule | effect on luciferase activity induced by GnRH-2 [3] | Log EC50 [5] | other results
1 | CC(=O)N[C@H](Cc1ccc2ccccc2c1)C(=O)N[C@H](Cc1ccc(Cl)cc1)C(=O)N[C@H](Cc1cccnc1)C(=O)N[C@@H](CO)C(=O)N[C@@H](Cc1ccc(O)cc1)C(=O)N[C@H](CCCNC(N)=O)C(=O)N[C@@H](CC(C)C)C(=O)N[C@@H](CCCNC(=N)N)C(=O)N1CCC[C@H]1C(=O)N[C@H](C)C(N)=O [Cetrorelix, Ac-D-2Nal-(4Cl)-D-Phe-D-3Pal-Ser-Tyr-D-Cit-Leu-Arg-Pro-D-Ala-NH2, reference compound] (Ac-[d2Nal][dPhe(4-Cl)][d3Pal]SY[dCit]LRP[dA]-NH2) | no effect | – | Log IC50 [1]: −6.43 ± 0.11; Log IC50 [2]: −6.28 ± 0.13; Binding affinity (log IC50 value) [4]: −7.11 ± 0.08
2 | CC(=O)N[C@H](Cc1ccc2ccccc2c1)C(=O)N[C@H](Cc1ccc(Cl)cc1)C(=O)N[C@H](Cc1cccnc1)C(=O)N[C@@H](CO)C(=O)N[C@@H](Cc1c[nH]cn1)C(=O)N[C@H](CCCNC(N)=O)C(=O)N[C@@H](Cc1c[nH]c2ccccc12)C(=O)N[C@@H](Cc1ccc(O)cc1)C(=O)N1CCC[C@H]1C(=O)N[C@H](C)C(N)=O [Trptorelix-2, Ac-D2Nal-(4Cl)D-Phe-D-3Pal-Ser-His-DCit-Trp-Tyr-Pro-DAla-NH2] (Ac-[d2Nal][dPhe(4-Cl)][d3Pal]SH[dCit]WYP[dA]-NH2) | reduced in a concentration-dependent manner | – | Log IC50 ([3]; log of IC50 (negative values), reporter c-fos-luc, GnRH-2-induced luciferase, average of three experiments, ND = not detected, no inhibitory functions): −6.19 ± 0.12
3 | Ac-D2Nal-(4Cl)D-Phe-D-3Pal-Ser-Tyr-DCit-Trp-Leu-Pro-DAla-NH2 (Ac-[d2Nal][dPhe(4-Cl)][d3Pal]SY[dCit]WLP[dA]-NH2; SMILES CC(=O)N[C@H](Cc1ccc2ccccc2c1)C(=O)N[C@H](Cc1ccc(Cl)cc1)C(=O)N[C@H](Cc1cccnc1)C(=O)N[C@@H](CO)C(=O)N[C@@H](Cc1ccc(O)cc1)C(=O)N[C@H](CCCNC(N)=O)C(=O)N[C@@H](Cc1c[nH]c2ccccc12)C(=O)N[C@@H](CC(C)C)C(=O)N1CCC[C@H]1C(=O)N[C@H](C)C(N)=O) [Trptorelix-3] | no effect | – | –
4 | [D-Ala^6]GnRH-1: the agonist of GnRH-1 | – | −6.38 ± 0.10 | effect / sensitivity in luciferase activation ([5]; compared with GnRH-2 or [D-Ala^6]GnRH-2): very low sensitivity as compared with GnRH-2
5 | p-Glu-His-Trp-Ser-His-D-Lys-Trp-Tyr-Pro-Gly-NH2 ([pGlu]HWSH[dK]WYPG-NH2; SMILES NCCCC[C@@H](NC(=O)[C@H](Cc1c[nH]cn1)NC(=O)[C@H](CO)NC(=O)[C@H](Cc1c[nH]c2ccccc12)NC(=O)[C@H](Cc1c[nH]cn1)NC(=O)[C@@H]1CCC(=O)N1)C(=O)N[C@@H](Cc1c[nH]c2ccccc12)C(=O)N[C@@H](Cc1ccc(O)cc1)C(=O)N1CCC[C@H]1C(=O)NCC(N)=O) [[D-Lys^6]GnRH-2] | – | −8.57 ± 0.11 | –
6 | pGlu-His-Trp-Ser-His-D-Ala-Leu-Tyr-Pro-Gly-NH2 ([pGlu]HWSH[dA]LYPG-NH2; SMILES CC(C)C[C@H](NC(=O)[C@@H](C)NC(=O)[C@H](Cc1c[nH]cn1)NC(=O)[C@H](CO)NC(=O)[C@H](Cc1c[nH]c2ccccc12)NC(=O)[C@H](Cc1c[nH]cn1)NC(=O)[C@@H]1CCC(=O)N1)C(=O)N[C@@H](Cc1ccc(O)cc1)C(=O)N1CCC[C@H]1C(=O)NCC(N)=O) [[D-Ala^6, Leu^7]GnRH-2] | – | −7.95 ± 0.10 | –
7 | pGlu-His-Trp-Ser-His-D-Ala-Tyr-Trp-Pro-Gly-NH2 ([pGlu]HWSH[dA]YWPG-NH2; SMILES C[C@@H](NC(=O)[C@H](Cc1c[nH]cn1)NC(=O)[C@H](CO)NC(=O)[C@H](Cc1c[nH]c2ccccc12)NC(=O)[C@H](Cc1c[nH]cn1)NC(=O)[C@@H]1CCC(=O)N1)C(=O)N[C@@H](Cc1ccc(O)cc1)C(=O)N[C@@H](Cc1c[nH]c2ccccc12)C(=O)N1CCC[C@H]1C(=O)NCC(N)=O) [[D-Ala^6, Tyr^7, Trp^8]GnRH-2] | – | −7.57 ± 0.13 | –
8 | pGlu-His-Trp-Ser-Leu-D-Ala-Trp-Tyr-Pro-Gly-NH2 ([pGlu]HWSL[dA]WYPG-NH2; SMILES CC(C)C[C@H](NC(=O)[C@H](CO)NC(=O)[C@H](Cc1c[nH]c2ccccc12)NC(=O)[C@H](Cc1c[nH]cn1)NC(=O)[C@@H]1CCC(=O)N1)C(=O)N[C@H](C)C(=O)N[C@@H](Cc1c[nH]c2ccccc12)C(=O)N[C@@H](Cc1ccc(O)cc1)C(=O)N1CCC[C@H]1C(=O)NCC(N)=O) [[Leu^5, D-Ala^6]GnRH-2] | – | −7.35 ± 0.12 | –
9 | pGlu-His-Trp-Ser-Tyr-D-Ala-Trp-Leu-Pro-Gly-NH2 ([pGlu]HWSY[dA]WLPG-NH2; SMILES CC(C)C[C@H](NC(=O)[C@H](Cc1c[nH]c2ccccc12)NC(=O)[C@@H](C)NC(=O)[C@H](Cc1ccc(O)cc1)NC(=O)[C@H](CO)NC(=O)[C@H](Cc1c[nH]c2ccccc12)NC(=O)[C@H](Cc1c[nH]cn1)NC(=O)[C@@H]1CCC(=O)N1)C(=O)N1CCC[C@H]1C(=O)NCC(N)=O) [[Tyr^5, D-Ala^6, Leu^8]GnRH-2] | – | −7.90 ± 0.24 | –
